# Experimental data published in patent publication US20150203474A1, “SOLID FORMS COMPRISING INHIBITORS OF HCV NS5A, COMPOSITIONS THEREOF, AND USES THEREWITH” (PRESIDIO PHARMACEUTICALS ,INC., priority 2012, published 2015).
# Like-named read-outs stand apart in the source and are kept apart here.
# Test: Solubility of Form I and free base compound 4-3 (visual and HPLC assay of filtrate)
# Format: physicochemical
# Conditions: for solubility at 24 h: thermodynamic from solid; for solubility at 24 h / HPLC Solubility / Visual Solubility (observation in words): target conc. 2.0 mg/mL; for pH (Filtrated): filtrate of solubility sample
# Procedure: Solubility of Form I as well as the free base compound 4-3 was tested. Solubility was measured by placing a small quantity of the compound to be analyzed in a glass vial, capping and rotating the vial overnight at ambient conditions (24 hours). Target concentration was 2.0 mg/mL. The samples were filtrated with 0.45-μm filters. The subsequent filtrate was collected for HPLC assay. HPLC conditions are shown in Table 10 in Appendix A. Solubility for Form I is shown in Table 11 and for the free base compound 4-3 is shown in Table 12 in Appendix A. [table]
smiles,measurement,setting,value
CC[C@H](C)[C@H](NC(=O)OC)C(=O)N1CCC[C@H]1c1nc2ccc(-c3ccc4cc(-c5cnc([C@@H]6CCCN6C(=O)[C@@H](NC(=O)OC)[C@@H](C)OC)[nH]5)ccc4c3)cc2[nH]1 [Form I of Compound II],solubility at 24 h,"0.1N HCl, simulated gastric fluid, 0.1N HCl, 24 hours ambient, 0.45-μm filtrate, read-out: HPLC Solubility",2070 µg/mL
same,solubility at 24 h,"0.1N HCl, simulated gastric fluid, 0.1N HCl, read-out: Visual Solubility",> 2000 µg/mL
same,pH (Filtrated),"0.1N HCl, listed as Form I",1.00
same,pH (Filtrated),"Water, listed as Form I",3.45
same,HPLC Solubility,"Water, 24 hours ambient, 0.45-μm filtrate, listed as Form I",2036 µg/mL
same,solubility at 24 h,"pH 2 medium, pH 2, simulated gastric fluid, pH 2 medium, 24 hours ambient, 0.45-μm filtrate, read-out: HPLC Solubility",2050 µg/mL
same,solubility at 24 h,"pH 2 medium, pH 2, simulated gastric fluid, pH 2 medium, read-out: Visual Solubility",> 2000 µg/mL
same,pH (Filtrated),"pH 2 medium, listed as Form I",2.00
same,solubility at 24 h,"pH 3 medium, pH 3, aqueous buffer, pH 3 medium, 24 hours ambient, 0.45-μm filtrate, read-out: HPLC Solubility",2030 µg/mL
same,solubility at 24 h,"pH 3 medium, pH 3, aqueous buffer, pH 3 medium, read-out: Visual Solubility",> 2000 µg/mL
same,pH (Filtrated),"pH 3 medium, listed as Form I",2.96
same,pH (Filtrated),"pH 4 medium, listed as Form I",3.55
same,HPLC Solubility,"pH 4 medium, 24 hours ambient, 0.45-μm filtrate, listed as Form I",1857 µg/mL
same,Visual Solubility (observation in words),"pH 4 medium, listed as Form I",A few
same,pH (Filtrated),"pH 5 medium, listed as Form I",3.63
same,Visual Solubility (observation in words),pH 5 medium,Turbid +
same,HPLC Solubility,"pH 5 medium, 24 hours ambient, 0.45-μm filtrate, listed as Form I",1106 µg/mL
same,pH (Filtrated),"pH 6 medium, listed as Form I",5.44
same,Visual Solubility (observation in words),"pH 6 medium, listed as Form I",Many
same,pH (Filtrated),"pH 7 medium, listed as Form I",6.86
same,Visual Solubility (observation in words),"pH 7 medium, listed as Form I",Many
same,pH (Filtrated),"pH 8 medium, listed as Form I",7.58
same,Visual Solubility (observation in words),"pH 8 medium, listed as Form I",Many
same,solubility at 24 h,"water, Water, read-out: Visual Solubility",> 2000 µg/mL
